Experimental data as given in patent US20020064500A1, “Radiotracers for in vivo study of acetylcholinesterase and alzheimer's disease” (priority 1999, published 2002).

How the values were obtained:
[1] = biological target: acetylcholinesterase (Homo sapiens, UniProt P22303); assay: PET imaging of acetylcholinesterase in a human brain, with and without ARICEPT; conditions: for Normalized uptake (nCi/ccBRAIN/nCi/ccPLASMA): healthy human subject, i.v., PET, average of scans after 42 minutes; for Normalized uptake post 5 mg ARICEPT (nCi/ccBRAIN/nCi/ccPLASMA): same subject, 3 hours after oral 5 mg ARICEPT tablet
Method: The same imaging study was then performed.
A thermoplastic mask was used for PET positioning. Use of a thermoplastic mask is routine for PET studies to help immobilize the head and to provide spacial facial landmarks. To produce a brain image, PETwas begun, and 25 scans were obtained in 90 minutes. After each scan, heated venous blood samples were withdrawn from the back of the patient's hand, to measure the amount of the radiolabeled compound in the blood, in units of nCi/cc blood. The brain images were used to calculate nCi/ccBRAIN for each scan. The average of the ratio (nCi/ccBRAIN/nCi/ccPLASMA)control (i.e., tissue radioactivity/plasma radioactivity or nanocurries per cubic centimeter of brain tissue divided by nanocurries per cubic centimeter of blood), over the scans collected after 42 minutes, for each area of the brain, are shown in Table 1.
Brain images and brain time radioactivity curves were obtained in the same manner as above and the average nCi/ccBRAIN/nCi/ccPLASMA ratio was calculated for each area the brain.

[2] = biological target: T1, acetylcholinesterase (Mus musculus, UniProt P21836); assay: Kinetic experiment: regional brain biodistribution in mice; assay type: in vivo, male Charles River mice (CD-1); conditions: for percentage of the administered dose/gram of brain tissue (%ID/g): 5 minutes post i.v. injection, mean of 3
T1 construct: from tissue; host or cells: brain regions of CD-1 mice after intravenous injection
T1 sequence (P21836 32-614): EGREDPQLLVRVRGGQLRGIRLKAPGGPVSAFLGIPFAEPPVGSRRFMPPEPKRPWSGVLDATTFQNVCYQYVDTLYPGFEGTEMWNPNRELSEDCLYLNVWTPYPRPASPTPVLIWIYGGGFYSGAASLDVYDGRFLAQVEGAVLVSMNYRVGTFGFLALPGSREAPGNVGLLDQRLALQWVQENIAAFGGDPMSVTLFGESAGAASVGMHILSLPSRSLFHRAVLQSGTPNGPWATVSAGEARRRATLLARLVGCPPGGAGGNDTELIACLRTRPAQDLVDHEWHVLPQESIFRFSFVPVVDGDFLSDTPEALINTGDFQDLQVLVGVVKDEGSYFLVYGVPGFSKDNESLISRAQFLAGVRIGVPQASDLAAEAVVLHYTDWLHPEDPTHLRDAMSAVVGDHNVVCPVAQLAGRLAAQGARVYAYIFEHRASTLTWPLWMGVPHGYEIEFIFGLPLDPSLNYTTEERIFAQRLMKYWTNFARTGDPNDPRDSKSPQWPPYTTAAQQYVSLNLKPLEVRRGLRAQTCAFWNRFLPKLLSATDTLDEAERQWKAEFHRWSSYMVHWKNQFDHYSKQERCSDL
Method: 21 male Charles River mice (CD-1) were divided into 7 groups of 3 mice each. Each mouse was injected via a tail vein with approximately 350 μCi of compound II (10 μg). Each mouse was sacrificed by cervical dislocation at the following times post injection: group 1 at 5 minutes; group 2 at 15 minutes; group 3 at 30 minutes; group 4 at 45 minutes; group 5 at 60; group 6 at 90 minutes; and group 7 at 120 minutes. At the time of sacrifice of a particular group, the brains of each mouse were quickly removed and dissected on ice. The following regions were collected weighed and assayed for radioactivity: cerebellum, hippocampus, striatum, parietal cortex, thalamus. The following values, averaged over each group of three mice, for the percentage of the administered dose of compound II/gram of brain tissue (%ID/g), were found in the following brain regions at five minutes post injection: striatum (6.19% injected dose/gram tissue); thalamus (4.76%); cortex (4.01%); cerebellum (3.76%); and hippocampus (3.41%).

[3] = biological target: T1, acetylcholinesterase; assay: Dose response experiment: blocking of compound II brain binding by compound III in mice; assay type: in vivo; conditions: 5 minutes before compound II i.v.
Method: Male Charles River mice (CD-1) were divided into 5 groups of 3 mice each. Non-radiolabeled compound III was administered to each mouse in increasing doses as follows: group1, saline controls; group 2, 0.01 mg/kg; group 3, 0.1 mg/kg; group 4, 0.3 mg/kg; and group 5,1 mg/kg. Five minutes after the injection with compound III or the saline control, each mouse was administered compound II (421 μCi, 8 μg) by intravenous injection as above. Each mouse was sacrificed by cervical dislocation and brain tissue dissected and the radioactivity of each brain region assayed as described above. The values, averaged over each group of three mice, for the percentage of the administered dose of compound II/gram of brain tissue at each dosage of compound III for each brain region were calculated (FIG. 4 below).

Sequence of acetylcholinesterase (Homo sapiens, UniProt P22303) (P22303 32-614): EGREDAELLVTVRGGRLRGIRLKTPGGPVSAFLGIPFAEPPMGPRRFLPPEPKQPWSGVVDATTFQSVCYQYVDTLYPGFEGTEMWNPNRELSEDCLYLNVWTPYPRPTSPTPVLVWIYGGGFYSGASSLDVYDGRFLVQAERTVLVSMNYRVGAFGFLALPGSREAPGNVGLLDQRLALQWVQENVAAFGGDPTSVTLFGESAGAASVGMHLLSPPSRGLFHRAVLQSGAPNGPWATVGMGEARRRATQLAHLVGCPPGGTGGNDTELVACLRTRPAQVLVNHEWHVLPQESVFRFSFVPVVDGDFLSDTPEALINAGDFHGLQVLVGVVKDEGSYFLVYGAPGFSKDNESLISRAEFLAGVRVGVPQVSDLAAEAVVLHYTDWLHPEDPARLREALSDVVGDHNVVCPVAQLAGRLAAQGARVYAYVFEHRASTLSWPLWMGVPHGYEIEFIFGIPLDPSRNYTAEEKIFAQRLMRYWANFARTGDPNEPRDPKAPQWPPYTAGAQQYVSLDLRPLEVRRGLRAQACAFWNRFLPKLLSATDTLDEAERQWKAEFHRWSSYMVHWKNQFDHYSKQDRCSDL

SMILES: [11CH3]N1C(=O)Cc2cc3c(CCC4CCN(Cc5ccccc5)CC4)noc3cc21 [compound II, 5,7-dihydro-7-[^11C]-methyl-3-[2-[1-(phenylmethyl)4-piperidinyl]ethyl]-6H-pyrrolo[3,2-f]-1,2-benzisoxazole-6-one]
- Normalized uptake (nCi/ccBRAIN/nCi/ccPLASMA) ([1]; Caudate): 54 nCi/ccBRAIN/nCi/ccPLASMA
- Normalized uptake post 5 mg ARICEPT (nCi/ccBRAIN/nCi/ccPLASMA) ([1]; Caudate): 19 nCi/ccBRAIN/nCi/ccPLASMA
- Normalized uptake (nCi/ccBRAIN/nCi/ccPLASMA) ([1]; Cerebellum): 47 nCi/ccBRAIN/nCi/ccPLASMA
- Normalized uptake post 5 mg ARICEPT (nCi/ccBRAIN/nCi/ccPLASMA) ([1]; Cerebellum): 13 nCi/ccBRAIN/nCi/ccPLASMA
- Normalized uptake (nCi/ccBRAIN/nCi/ccPLASMA) ([1]; Frontal cortex): 26 nCi/ccBRAIN/nCi/ccPLASMA
- Normalized uptake post 5 mg ARICEPT (nCi/ccBRAIN/nCi/ccPLASMA) ([1]; Frontal cortex): 7 nCi/ccBRAIN/nCi/ccPLASMA
- Normalized uptake (nCi/ccBRAIN/nCi/ccPLASMA) ([1]; Hippocampus): 30 nCi/ccBRAIN/nCi/ccPLASMA
- Normalized uptake (nCi/ccBRAIN/nCi/ccPLASMA) ([1]; Medulla Oblongata): 40 nCi/ccBRAIN/nCi/ccPLASMA
- Normalized uptake (nCi/ccBRAIN/nCi/ccPLASMA) ([1]; Occipital cortex): 23 nCi/ccBRAIN/nCi/ccPLASMA
- Normalized uptake (nCi/ccBRAIN/nCi/ccPLASMA) ([1]; Parietal cortex): 27 nCi/ccBRAIN/nCi/ccPLASMA
- Normalized uptake post 5 mg ARICEPT (nCi/ccBRAIN/nCi/ccPLASMA) ([1]; Parietal cortex): 7 nCi/ccBRAIN/nCi/ccPLASMA
- Normalized uptake (nCi/ccBRAIN/nCi/ccPLASMA) ([1]; Pons): 36 nCi/ccBRAIN/nCi/ccPLASMA
- Normalized uptake (nCi/ccBRAIN/nCi/ccPLASMA) ([1]; Putamen): 61 nCi/ccBRAIN/nCi/ccPLASMA
- Normalized uptake post 5 mg ARICEPT (nCi/ccBRAIN/nCi/ccPLASMA) ([1]; Putamen): 26 nCi/ccBRAIN/nCi/ccPLASMA
- Normalized uptake (nCi/ccBRAIN/nCi/ccPLASMA) ([1]; Temporal cortex): 26 nCi/ccBRAIN/nCi/ccPLASMA
- Normalized uptake (nCi/ccBRAIN/nCi/ccPLASMA) ([1]; Thalamus): 33 nCi/ccBRAIN/nCi/ccPLASMA
- highest specific binding defined as striatum-cerebellum ([2]; 30 minutes post i.v. injection): 4.33%
- percentage of the administered dose/gram of brain tissue (%ID/g) ([2]; cerebellum): 3.76%
- percentage of the administered dose/gram of brain tissue (%ID/g) ([2]; cortex): 4.01%
- percentage of the administered dose/gram of brain tissue (%ID/g) ([2]; hippocampus): 3.41%
- percentage of the administered dose/gram of brain tissue (%ID/g) ([2]; striatum): 6.19 % injected dose/gram tissue
- percentage of the administered dose/gram of brain tissue (%ID/g) ([2]; thalamus): 4.76%

SMILES: O=C1Cc2cc3c(CCC4CCN(Cc5ccccc5)CC4)noc3cc2N1 [compound III, 5,7-dihydro-3-[2-[1-(phenylmethyl)-4-piperidinyl]ethyl]-6H-pyrrolo[3,2-f]-1,2-benzisoxazole-6-one]
- reduction of compound II binding in striatum relative to the saline control ([3]; compound III 0.1 mg/kg): 6%
- reduction of compound II binding in striatum relative to the saline control ([3]; compound III 0.3 mg/kg): 20%
- reduction of compound II binding in striatum relative to the saline control ([3]; compound III 1 mg/kg): 52%
